Results reported in patent US20240239790A1, “7-Morpholino-1,6-Naphthyridin-5-yl Derivatives and Pharmaceutical Compositions Thereof Useful as DNA-PK Inhibitor” (adMare Therapeutics Society, priority 2021, published 2024).
Read-outs that look alike come from different tables or passages of the source.

Columns and labels:
[1] = Pharmacokinetic study in male Beagle dogs (IV and PO), plasma; type: in vivo, dog; conditions: for AUC—% Extrap—obs / Cl_obs / Vz_obs / AUC(0-t) / half-life / AUC(0-inf) / Cmax: dog plasma; for AUC(0-t) / half-life / AUC(0-inf) / Cmax: male, Beagle; for AUC(0-inf): read-out: AUCINF—obs; for Cmax: read-out: Cmax (5 min)
Procedure: Pharmacokinetic studies were conducted to estimate plasma concentrations obtained after oral gavage (PO) and intravenous (IV) single administration of compounds administered to separate groups of male Beagle dogs. Three (3) dogs were administered a compound via the intravenous (IV) route at 3 mg/kg and 2.5 mL/kg, and plasma was collected at 12 timepoints over a 24-hour period. Following a 7 days washout period, the same dogs were administered the same compound via PO at 10 mg/kg and 5 mL/kg, and plasma was collected at 12 timepoints over a 48-hour period.
(§1) The in-vivo study plasma samples were analyzed using Ultra Performance Liquid Chromatography (UPLC) with tandem mass spectrometry (MS/MS) detection in multiple reaction monitoring (MRM) mode. A generic bioanalytical method involving plasma sample extraction and cleanup by protein precipitation with acetonitrile was used followed by UPLC-MS/MS analysis.
(§2) A brief example of a generic bioanalytical UPLC-MS/MS method used for analysis of compounds in the in-vivo study plasma samples is as follows. Plasma samples were spiked with internal standard prior to extraction and cleanup by protein precipitation with ice cold acetonitrile containing 0.1% (v/v) ammonium hydroxide at a ratio of 3:1 (solvent:plasma) and centrifuged at 18213 rcf for 15 minutes at 4° C. to pellet precipitates. Aliquots of supernatants were transferred to a 96-well plate and evaporated to dryness at 40° C. under a stream of nitrogen gas. Samples were reconstituted in 50:50 acetonitrile/10 mM ammonium acetate buffer pH 8, mixed thoroughly and analyzed using Ultra Performance Liquid Chromatography (UPLC) with tandem mass spectrometry (MS/MS) detection in multiple reaction monitoring (MRM) mode. Matrix-matched calibration standards and quality control (QC) samples were prepared in naïve C57Bl/6 mouse plasma. The UPLC column used was Waters Acquity UPLC BEH C18 1.7 um, 2.1 mm×50 mm (with guard column). The UPLC mobile phase consisted of: Mobile phase A: 10 mM ammonium acetate in Water pH 8, and Mobile phase B: Acetonitrile. Separation was accomplished with a linear gradient of 5% mobile phase B to 95% mobile phase B in 2 min, and a flow rate of 0.35 mL/min. The MS/MS data acquisition was accomplished using 3 MRM Transitions in ESI+ mode. Parent ion mass 508.37 m/z-to-Daughter ions (m/z) 117.05, 232.13 and 270.22. The quantitation of concentrations in test samples was achieved by matrix-matched calibration with normalization using an internal standard. Data acquisition and analysis were performed using Waters MassLynx software with TargetLynx application manager.
(§3) Estimation of PK parameters was performed using independent noncompartmental model method by PHOENIX WinNonlin software.

[2] = test system: FaDu tumour xenograft; test: Tumour Growth Delay, FaDu tumour xenograft-bearing animals, compound ± radiation (TGD-ER); type: in vivo; conditions: PO
Procedure: FaDu tumour xenograft-bearing animals were monitored for tumour growth and once average tumour size reached approximately 100-250 mm3, animals were assigned to treatment cohorts using stratified randomization. […]
For BID dosing regimens, at 8 h following the first injection, animals were again administered with test compound at the same dose as their previous administration. Animals were weighed and had tumours measured using calipers three times weekly until the endpoint of maximum tumour volume, 1000 mm3, was reached and animals were euthanized. Tumour volumes were calculated according to the equation L×W^2/2 with the length (mm) being the longer axis of the tumour; in the case that no tumour was palpable, tumour volumes were recorded as 0 mm^3.
Data were calculated as tumour growth normalized to day 0 measurements, with time to tumour doubling determined. Average time to tumour doubling for each group was used to determine a Tumour Growth Delay Enhancement Ratio (TGD-ER): the time to doubling for treatment groups were divided by the time to doubling for irradiation-alone groups to determine group-specific TGD-ER values, and these were assigned scores based on defined response ranges: values>2.5=A, 1-2.5=B, <1=C.

[3] = Pharmacokinetic study in male Sprague-Dawley rats (IV and PO), plasma; type: in vivo, rat; conditions: for AUC(0-t) / Cmax at 5 min / half-life / AUC(0-inf): male, Sprague-Dawley; for AUC(0-t) / Cmax at 5 min / half-life / AUC(0-inf) / AUC—% Extrap—obs / Cl_obs / Vz_obs: rat plasma; for AUC(0-inf): read-out: AUCINF—obs; for F: rat
Procedure: Pharmacokinetic studies were conducted to estimate plasma concentrations obtained after oral gavage (PO) and intravenous (IV) single administration of compounds administered to male Sprague-Dawley rats. Six (6) rats were administered for each compound, route and dose, and plasma was collected at 12 timepoints over a 24 hr period for IV, and 12 timepoints over a 48 hr period for PO. Note that plasma was collected from only 3 animals per timepoint (n=3 for timepoints up to 10 hours, and n=3 for timepoints from 16 h to end of study). Dosing volumes were 5 mL/kg for IV and 10 mL/kg for PO gavage. IV compounds for administration were in solutions, whereas PO compounds were in solution or suspension.
as §1, §2, §3

**Q.** For `O=C(COc1cnc(N[C@H]2CC[C@@H](Oc3nc(N4CCOCC4)cc4ncccc34)CC2)nc1)N1CCOCC1` [Compound 61, 1-Morpholino-2-((2-(((1s,4s)-4-((7-morpholino-1,6-naphthyridin-5-yl)oxy)cyclohexyl)amino)pyrimidin-5-yl)oxy)ethan-1-one], which “AUC—% Extrap—obs” value ([1]; IV, 3 mg/kg) is on record?
**A.** 0.79%

**Q.** And the Cl_obs ([1]; IV, 3 mg/kg)?
**A.** 14.338 mL/min/kg

**Q.** What about the Vz_obs ([1]; IV, 3 mg/kg) of the same molecule?
**A.** 4.48058 L/kg

**Q.** And the “AUC—% Extrap—obs” value ([1]; PO, 10 mg/kg)?
**A.** 0.78%

**Q.** And the Cl_obs ([1]; PO, 10 mg/kg)?
**A.** 35.8008 mL/min/kg

**Q.** What about the Vz_obs ([1]; PO, 10 mg/kg) of the same molecule?
**A.** 11.52897 L/kg

**Q.** What about the F ([1]; dog, PO, 10 mg/kg) of the same molecule?
**A.** 46%

**Q.** What about the AUC(0-t) ([1]; IV, 3 mg/kg) of the same molecule?
**A.** 3480 ng·h/mL

**Q.** And the half-life ([1]; IV, 3 mg/kg)?
**A.** 3.64 h

**Q.** What about the AUC(0-inf) ([1]; IV, 3 mg/kg) of the same molecule?
**A.** 3500 ng·h/mL

**Q.** What about the Cmax ([1]; IV, 3 mg/kg) of the same molecule?
**A.** 3700 ng/mL

**Q.** And the AUC(0-t) ([1]; PO, 10 mg/kg)?
**A.** 5300 ng·h/mL

**Q.** What about the half-life ([1]; PO, 10 mg/kg) of the same molecule?
**A.** 4.39 h

**Q.** What about the AUC(0-inf) ([1]; PO, 10 mg/kg) of the same molecule?
**A.** 5340 ng·h/mL

**Q.** What about the Cmax ([1]; PO, 10 mg/kg) of the same molecule?
**A.** 1070 ng/mL

**Q.** And the “TGD-ER Range Score” value ([2]; (30 mpk + 2 Gy) Q5D)?
**A.** A (values>2.5=A)

**Q.** And the “TGD-ER Range Score” value ([2]; (30 mpk) Q5D)?
**A.** C (<1=C)

**Q.** And the AUC(0-t) ([3]; IV, 3 mg/kg)?
**A.** 912 ng·h/mL

**Q.** And the Cmax at 5 min ([3]; IV, 3 mg/kg)?
**A.** 1600 ng/mL

**Q.** And the half-life ([3]; IV, 3 mg/kg)?
**A.** 1.49 h

**Q.** And the AUC(0-inf) ([3]; IV, 3 mg/kg)?
**A.** 913 ng·h/mL

**Q.** And the AUC(0-t) ([3]; PO, 3 mg/kg)?
**A.** 241 ng·h/mL

**Q.** What about the Cmax at 5 min ([3]; PO, 3 mg/kg) of the same molecule?
**A.** 87.5 ng/mL

**Q.** And the half-life ([3]; PO, 3 mg/kg)?
**A.** 5.68 h

**Q.** And the AUC(0-inf) ([3]; PO, 3 mg/kg)?
**A.** 330 ng·h/mL

**Q.** What about the AUC(0-t) ([3]; PO, 10 mg/kg) of the same molecule?
**A.** 1070 ng·h/mL

**Q.** What about the Cmax at 5 min ([3]; PO, 10 mg/kg) of the same molecule?
**A.** 235 ng/mL

**Q.** And the half-life ([3]; PO, 10 mg/kg)?
**A.** 2.64 h

**Q.** What about the AUC(0-inf) ([3]; PO, 10 mg/kg) of the same molecule?
**A.** 1220 ng·h/mL

**Q.** And the AUC(0-t) ([3]; PO, 30 mg/kg)?
**A.** 5760 ng·h/mL

**Q.** And the Cmax at 5 min ([3]; PO, 30 mg/kg)?
**A.** 655 ng/mL

**Q.** And the half-life ([3]; PO, 30 mg/kg)?
**A.** 13.7 h

**Q.** What about the AUC(0-inf) ([3]; PO, 30 mg/kg) of the same molecule?
**A.** 15800 ng·h/mL

**Q.** And the “AUC—% Extrap—obs” value ([3]; IV, 3 mg/kg)?
**A.** 0.10%

**Q.** What about the Cl_obs ([3]; IV, 3 mg/kg) of the same molecule?
**A.** 54.761 mL/min/kg

**Q.** What about the Vz_obs ([3]; IV, 3 mg/kg) of the same molecule?
**A.** 7.05679 L/kg

**Q.** And the “AUC—% Extrap—obs” value ([3]; PO, 3 mg/kg)?
**A.** 26.80%

**Q.** And the Cl_obs ([3]; PO, 3 mg/kg)?
**A.** 151.581 mL/min/kg

**Q.** And the Vz_obs ([3]; PO, 3 mg/kg)?
**A.** 74.5443 L/kg

**Q.** And the “AUC—% Extrap—obs” value ([3]; PO, 10 mg/kg)?
**A.** 12.39%

**Q.** What about the Cl_obs ([3]; PO, 10 mg/kg) of the same molecule?
**A.** 136.306 mL/min/kg

**Q.** And the Vz_obs ([3]; PO, 10 mg/kg)?
**A.** 31.192 L/kg

**Q.** And the “AUC—% Extrap—obs” value ([3]; PO, 30 mg/kg)?
**A.** 63.5%

**Q.** What about the Cl_obs ([3]; PO, 30 mg/kg) of the same molecule?
**A.** 31.6652 mL/min/kg

**Q.** What about the Vz_obs ([3]; PO, 30 mg/kg) of the same molecule?
**A.** 37.65453 L/kg

**Q.** And the F ([3]; PO, 3 mg/kg)?
**A.** 26%

**Q.** And the F ([3]; PO, 10 mg/kg)?
**A.** 35%

**Q.** And the F ([3]; PO, 30 mg/kg)?
**A.** 63%
